According to US20170233346A1, “CRYSTALLINE ANTI-TRICHOPHYTON AGENTS AND PREPARATION PROCESS THEREOF” (MEIJI SEIKA PHARMA CO., LTD., priority 2014, published 2017):

Test: Crystal form stability test (preservation, then powder X-ray diffraction and content)
Type: physicochemical
Description: Using high-speed imaging plate X-ray diffraction system (R-AXIS VII) manufactured by Rigaku Corporation, X-ray diffraction data of the crystals of the compound of the formula (1) were measured at −180° C. with a CuK α radiation (50 kV, 90 mA, λ=1.5418 Å). A sample was filled in a glass capillary having an inner diameter of 0.7 mm. The diffraction images were collected under the conditions a camera length of 300 mm, an oscillation angle of 40°, and an exposure time of 45 minutes. A contour integration treatment of the diffraction image was carried out by an R-AXIS display software available from Rigaku Corporation (integration range: 45 to 135°). The maximum value of the obtained integrated intensity was made 100, relative intensities of the respective integral intensities were calculated, and plotting them based on the diffraction angle 20 to prepare a diffraction pattern. With regard to the crystals of the compounds of the formula (1), these were preserved under the following mentioned temperature and humidity conditions, and then powder X-ray diffractions were measured. […] Term: 12 months Preservation condition: 25±2° C./[…] Packaging form: Polyethylene double bag/fiber drum Term: 6 months Preservation condition: 40±2° C./75±5% RH* *: RH: relative humidity Packaging form: Polyethylene double bag/fiber drum

[1] = Test 1, 25° C./60% RH, at starting
[2] = Test 1, 25° C./60% RH, preservation period 3 months
[3] = Test 1, 25° C./60% RH, preservation period 6 months
[4] = Test 1, 25° C./60% RH, preservation period 9 months
[5] = Test 1, 25° C./60% RH, preservation period 12 months
[6] = Test 2, 40° C./75% RH, preservation period 1 month
[7] = Test 2, 40° C./75% RH, preservation period 3 months
[8] = Test 2, 40° C./75% RH, preservation period 6 months

In the case of Cc1ccc(-n2nc(C)cc2C)c(O)c1 [formula (1), 2-(3,5-dimethyl-1H-pyrazol-1-yl)-5-methylphenol], the “Content (%)” value [1] is reported as “(99.7%)*”, the “Crystal form (powder X-ray diffraction)” value [1] is reported as “Form A” and the “Content (%)” value [2] is reported as “(99.9%)*”. The “Crystal form (powder X-ray diffraction)” value [2] was “Form A”, the “Content (%)” value [3] was “(98.9%)*” and the “Crystal form (powder X-ray diffraction)” value [3] was “Form A”. For the same compound, the “Content (%)” value [4] was “(99.9%)*”, the “Crystal form (powder X-ray diffraction)” value [4] was “Form A” and the “Content (%)” value [5] was “(99.0%)*”. The “Crystal form (powder X-ray diffraction)” value [5] was “Form A”, the “Change in crystal form after preservation” value (Test 1 and Test 2, either of the measurement times) was “no change in crystal form was observed” and the “Content (%)” value [6] was “(100.3%)*”. For the same compound, the “Crystal form (powder X-ray diffraction)” value [6] was “Form A”, the “Content (%)” value [7] was “(100.6%)*” and the “Crystal form (powder X-ray diffraction)” value [7] was “Form A”. The “Content (%)” value [8] was “(100.4%)*”, the “Crystal form (powder X-ray diffraction)” value [8] was “Form A” and the “Period over which Form A crystals were extremely stable and high purity” value (even under the accelerated conditions) was no less than 6 months.
